Measured values: ChEMBL document CHEMBL6127099, “Stimuli-responsive prodrugs with self-immolative linker for improved cancer therapy” (Eur J Med Chem, 2024)

Biological target: NAD(P)H dehydrogenase [quinone] 1 (Homo sapiens, UniProt P15559)
Test: Prodrug activation assessed as NQO1 (unknown origin)-mediated RSSH release by measuring rate constant

Sequence of NAD(P)H dehydrogenase [quinone] 1 (P15559 whole entry): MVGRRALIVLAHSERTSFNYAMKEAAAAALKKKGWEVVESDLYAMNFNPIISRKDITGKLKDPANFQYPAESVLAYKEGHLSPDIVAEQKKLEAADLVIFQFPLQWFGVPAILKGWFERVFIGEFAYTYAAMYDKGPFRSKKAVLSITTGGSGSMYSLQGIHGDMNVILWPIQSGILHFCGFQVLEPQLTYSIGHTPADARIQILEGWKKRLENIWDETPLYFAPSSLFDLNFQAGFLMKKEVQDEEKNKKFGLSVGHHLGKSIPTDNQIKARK

Row | K | SMILES
1 | 0.212 min⁻¹ | CN1CCN(C)C1=O
2 | 0.32 min⁻¹ | Cc1c(C)c2c(c(C)c1O)C(C)(C)CC(=O)O2
3 | 0.162 min⁻¹ | COC(=O)[C@H](NC(C)=O)C(C)(C)SSCc1ccc(N(C)C(=O)CC(C)(C)C2=C(C)C(=O)C(C)=C(C)C2=O)cc1
4 | 0.17 min⁻¹ | COC(=O)[C@H](NC(C)=O)C(C)(C)SSC(=O)N(C)CCN(C)C(=O)CC(C)(C)C1=C(C)C(=O)C(C)=C(C)C1=O
